# Measurements reported in paper PMC9684509, “Construction of a synthetic methodology-based library and its application in identifying a GIT/PIX protein–protein interaction inhibitor” (Nature Communications, 2022).
# Ends that are not written are not given here.
# T1: GIT1 1–370 (Mus musculus, UniProt Q68FF6)
# T1 construct: residues 1-370, E. coli BL21(DE3), N-terminal Trx-His6 tag removed by HRV-3C protease; for BLI biotin-labelled (BLI construct not restated)
# T1 sequence (Q68FF6 1-370): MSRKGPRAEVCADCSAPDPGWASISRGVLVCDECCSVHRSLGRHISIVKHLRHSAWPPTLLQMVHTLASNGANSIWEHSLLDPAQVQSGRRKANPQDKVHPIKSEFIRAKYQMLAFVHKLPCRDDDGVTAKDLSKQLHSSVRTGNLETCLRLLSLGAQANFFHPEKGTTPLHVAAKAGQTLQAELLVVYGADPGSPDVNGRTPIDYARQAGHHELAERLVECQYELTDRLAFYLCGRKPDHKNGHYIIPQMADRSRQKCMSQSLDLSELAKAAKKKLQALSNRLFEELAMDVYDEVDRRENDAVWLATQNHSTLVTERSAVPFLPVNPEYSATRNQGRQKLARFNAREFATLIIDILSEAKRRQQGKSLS
# T2: GIT1 1–370 (mouse) (mouse, UniProt Q68FF6 1-370)
# T2 construct: GIT1, mouse, aa 1-370 (GenBank NM_001004144.1), cloned into pET32M3C; also called GIT1 protein; source: E. coli BL21 (DE3), purified (Ni-NTA, SEC, tag cleaved by HRV-3C, SEC); not shown: Trx, N-terminal, cleaved; His6, N-terminal, cleaved
# T2 sequence (looked up): T1 sequence (Q68FF6 1-370)
# B1: FITC-β-Pix fluorescent peptide (peptide)
# peptide: ALEEDAQILKVIEAYCTSAKT
# modifications: not fully specified (N-terminus)
# notes: source: synthetic peptide (China peptide, Shanghai)
# Biological target: T1, GIT1 1–370
# Assay: fluorescence polarization competition with FITC-beta-Pix peptide
# Assay type: binding
# Settings: not given
row,Ki [nM],Molecule
1,1800,CCOC(=O)[C@@H]1[C@@H]2C[C@@H](/C(=C\c3ccoc3)C2=O)[C@@]12C(=O)N(C)c1ccccc12 [14-5-18]
2,1500,CCOC(=O)C1=C[C@H](c2cccc(C)c2)[C@H]2CC[C@@H](CC(=O)C3CCCCC3)O[C@H]2N1S(=O)(=O)c1ccc(C)cc1 [15-4-26]

# Biological target: T1, GIT1 1–370
# Assay: biochemical
# Design: fluorescence polarization competition, displacement of FITC-beta-Pix peptide from GIT1
# Settings: read-out: IC50 in FP assay
# Protocol: GIT1 protein purification: Purification of GIT1 1–370 was performed following a published protocol. Briefly, the coding sequence of mouse GIT1 aa. 1–370 (GenBank: NM_001004144.1) was cloned into a pET32M3C (with an N-terminal Trx-His6 tag) vector. The recombinant protein was expressed in Escherichia coli BL21 (DE3) cells at 16 °C for 18 h induced by the isopropyl-β-D-thiogalactoside (IPTG) at a final concentration of 0.2 mM. The N-terminal Trx-His6-tagged GIT1 1–370 was purified by Ni^2+-NTA agarose affinity chromatography, followed by a Superdex-200 26/60 size-exclusion chromatography (GE Healthcare, Cytiva). To remove the Trx-His6 tag, GIT1 protein was cleaved by HRV-3C protease at 4 °C overnight and then purified by another step of SEC purification. The β-Pix-positive peptide (sequence: […]) and fluorescent peptide (sequence: FITC-(Acp)-[…]) were synthesized by China peptide (Shanghai, China). […] The fluorescence intensities, parallel and perpendicular to the plane of excitation, were determined in Corning black 96-well NBS assay plates at room temperature. Fluorescence polarization was determined using a Multi-Mode Detection Platform (SpectraMax Paradigm, Molecular Devices, USA) with 485 nm excitation and 535 nm emission filters, the values were expressed in millipolarization units (mP). The binding affinity of the fluorescent peptide toward GIT1 was first determined via titration. […]
row,IC50 [mM],Molecule
1,> 1,O=C(NCc1ccco1)C1CN(C(=O)c2cccs2)CC12CCCCC2 (stereo not drawn) [S030-1757]

# Biological target: T1, GIT1 1–370
# Assay: biochemical
# Design: Biolayer interferometry, kinetic binding of 14-5-18 to GIT1
# Settings: read-out: ka
# From the text: We next investigated whether compounds 14-5-18 and 15-4-26 specifically perturbed the GIT1/β-Pix interaction in living cells. Firstly, we performed Cellular Thermal Shift Assay (CETSA) to preliminarily explore the target engagement of the compounds with GIT1 (Supplementary Fig. 4). CETSA relies on the fact that proteins are generally vulnerable to thermal conditions, while physical binding with other molecules could improve their stability. […] Therefore, further evaluations were only performed with 14-5-18, and 15-4-26 was suspended for its poor potential for drug development. […] Similarly, under thermal conditions from 30 to 90 °C, 14-5-18 (50 µM) also considerably stabilized GIT1, especially at high temperatures (Supplementary Fig. 4c). To further confirm whether 14-5-18 directly bound to GIT1, we used biolayer interferometry (BLI) assay to measure their interaction. […] Concentrations ranging from 25 to 400 μM were shown with the real-time response for each step of the kinetic assay. b Co-IP assay to indicate the interaction of GIT1 and β-Pix and the inhibitory effects of 14-5-18. […] GFP-GIT1 (green) and Myc-β-Pix were expressed followed by treatment with a fluorescent secondary antibody (red) in the MGC803 cell line to construct the fluorescence system. […] Plot fluorescence intensities of the area marked by the white lines in the left panels are shown in the right graphs. […]
row,kon [M⁻¹ s⁻¹],Molecule
1,200,"CCOC(=O)[C@@H]1[C@@H]2C[C@@H](/C(=C\c3ccoc3)C2=O)[C@@]12C(=O)N(C)c1ccccc12 [14-5-18, ethyl (1S,2R,3R,4S,E)-6-(furan-3-ylmethylene)-1'-methyl-2',5-dioxospiro [bicyclo[2.2.1]heptane-2,3'-indoline]-3-carboxylate]"

# Same assay, conditions: read-out: kdis
row,koff [s⁻¹],Molecule
1,0.00154,"CCOC(=O)[C@@H]1[C@@H]2C[C@@H](/C(=C\c3ccoc3)C2=O)[C@@]12C(=O)N(C)c1ccccc12 [14-5-18, ethyl (1S,2R,3R,4S,E)-6-(furan-3-ylmethylene)-1'-methyl-2',5-dioxospiro [bicyclo[2.2.1]heptane-2,3'-indoline]-3-carboxylate]"

# Biological target: T1, GIT1 1–370
# Assay: biochemical
# Design: Fluorescence polarization competition of FITC-beta-Pix peptide binding to GIT1 1-370
# Settings: read-out: IC50 in FP assay
# Remark: another data set of the same source
# Protocol: GIT1 protein purification: Purification of GIT1 1–370 was performed following a published protocol. Briefly, the coding sequence of mouse GIT1 aa. 1–370 (GenBank: NM_001004144.1) was cloned into a pET32M3C (with an N-terminal Trx-His6 tag) vector. The recombinant protein was expressed in Escherichia coli BL21 (DE3) cells at 16 °C for 18 h induced by the isopropyl-β-D-thiogalactoside (IPTG) at a final concentration of 0.2 mM. The N-terminal Trx-His6-tagged GIT1 1–370 was purified by Ni^2+-NTA agarose affinity chromatography, followed by a Superdex-200 26/60 size-exclusion chromatography (GE Healthcare, Cytiva). To remove the Trx-His6 tag, GIT1 protein was cleaved by HRV-3C protease at 4 °C overnight and then purified by another step of SEC purification. The β-Pix-positive peptide (sequence: […]) and fluorescent peptide (sequence: FITC-(Acp)-[…]) were synthesized by China peptide (Shanghai, China). FP assay was used to monitor interactions between GIT1 and the compounds. For each assay, fresh protein stocks of GIT1 were thawed. Assay buffer contained 100 mM NaCl, 50 mM Tris pH 7.5. All the experiments were prepared in duplicates. The fluorescence intensities, parallel and perpendicular to the plane of excitation, were determined in Corning black 96-well NBS assay plates at room temperature. Fluorescence polarization was determined using a Multi-Mode Detection Platform (SpectraMax Paradigm, Molecular Devices, USA) with 485 nm excitation and 535 nm emission filters, the values were expressed in millipolarization units (mP). The binding affinity of the fluorescent peptide toward GIT1 was first determined via titration. For this purpose, 100 nM fluorescent peptide was contacted with serial dilutions of GIT1 (concentration ranging from 0.01 to 10 µM) in a final volume of 80 µL. KD value was stimulated from FP values and protein concentrations using GraphPad Prism 8.0 software. Competition binding assay was performed using 100 nM fluorescent peptide and optimal protein concentration (2.0 µM) for the measurement was calculated based on determined KD. Tested compounds were prepared as serial dilutions (0.1–500 µM) in DMSO. […] Additionally, the commercial compound library ChemDiv was screened as a control. The 20 compounds with the best docking scores were selected, purchased, and further subjected to FP binding assay to test their inhibitory abilities. […] The screening was performed at both virtual and entity levels. In the virtual screening, the docking model of the GIT1/β-Pix complex was constructed, and the binding pocket was generated based on the complex structure of GIT2/β-Pix that we solved recently (PDB ID: 6JMT)[42] (Fig. 2c). The virtual library (SMBL-V) was subjected to the Sybyl-X 2.0 program to perform high-throughput docking screening with GIT1 at the specific binding pockets. […] The Autodock and Sybyl-X 2.0 programs were used in combination for the second round of screening. Twenty top-ranked molecules were selected, and 9 compounds were synthesized (one structure for each scaffold) to perform further evaluation (N = 9) (see Source Data File for detailed structures and scores). For the entity library (SMBL-E) screening, a fluorescence polarization (FP)-binding assay[43],[44] was established to evaluate the inhibitory abilities of the compounds on the GIT1/β-Pix interaction (Fig. 2d). Several representative compounds (N = 100) with different scaffolds were chosen for screening. Together with the 9 compounds selected from virtual screening, a total of 109 compounds were subjected to the FP binding assay to perform the final evaluation. Compound 15-4-26 from the virtual library and compound 14-5-18 from the entity library with the best binding affinities (Ki values) were selected as candidates (Fig. 2e and Supplementary Fig. 3).
row,IC50 [mM],Molecule
1,> 1,Cc1cc(-c2ccc3ccccc3n2)nc2ccc3ccccc3c12 [0443-0206]
2,> 1,CC(NS(=O)(=O)c1ccc2c(c1)C(=O)c1cc(S(=O)(=O)NC(C)C(=O)O)ccc1-2)C(=O)O (stereo not drawn) [2578-0155]
3,> 0.1,C1C2CC3CC1CC(C2)C3Nc1nc2nonc2nc1NC1C2CC3CC(C2)CC1C3 (stereo not drawn) [3277-0083]
4,> 0.1,Cn1c(=O)c2c(nc(Oc3cccc(C4Nc5ccc6ccccc6c5C5=C4C(=O)CC(C)(C)C5)c3)n2C)n(C)c1=O (stereo not drawn) [3277-0261]
5,> 1,CC1=CC(C)(C)Nc2ccc(OC(=O)C(Cc3ccccc3)N3C(=O)C4CCCCC4C3=O)cc21 (stereo not drawn) [4934-0001]
6,> 1,Cn1c(=O)n(C)c2cc(CNC34CC5CC(C)(CC(C)(C5)C3)C4)ccc21 [D272-0692]
7,> 0.1,Cc1ccc2cc3c(nc2c1)N(S(=O)(=O)c1ccc2c(c1)OCCO2)CC3 [D470-0645]
8,> 1,CN1C(=O)C(c2c(-c3ccc4ccccc4c3)[nH]c3[nH]c(=O)[nH]c(=O)c23)c2ccccc21 (stereo not drawn) [D517-1064]
9,> 1,CSc1cccc(NC(=O)Nc2ccc(Nc3cc(N(C)C)nc(C)n3)cc2)c1 [D638-0006F]
10,> 0.1,O=S(=O)(c1ccc2nc(Nc3ccc(Br)cc3F)ccc2c1)N1CCCCC1 [F052-0078]
11,> 0.1,O=C(Nc1cccc(OCc2cc(=O)n3cc(Cl)ccc3n2)c1)Nc1ccc2c(c1)OCCO2 [G756-2320]
12,> 1,O=C1Nc2ccccc2Oc2cc(Oc3ccc4c(c3)OCO4)c(S(=O)(=O)N3CCCC3)cc21 [J030-0445]
13,> 1,CCS(=O)(=O)c1ccc2c(c1)N(Cc1nc(-c3ccc4c(c3)OCO4)no1)C(=O)CO2 [L111-0329]
14,> 0.1,Cc1cc(C)cc(S(=O)(=O)N2CCC3(CC2)NCCN=C3NCc2ccc(C(F)(F)F)cc2)c1 [L676-2486]
15,> 1,CC(CC(=O)Nc1ccc2c(c1)OCCO2)S(=O)(=O)c1ccc2c(c1)NC(=O)CCS2 (stereo not drawn) [L705-0544]

# Biological target: T2, GIT1 1–370 (mouse)
# Assay: fluorescence polarisation; direct titration: 100 nM fluorescent peptide with serial dilutions of GIT1 (0.01 to 10 µM), 80 µL; 100 mM NaCl, 50 mM Tris pH 7.5, room temperature
# Settings: both partners purified
row,binding result,Molecule
1,binds,B1
